Reference: ChEMBL document CHEMBL5376018 (RSC Med Chem, 2024)

Key:
rhinovirus B14 = assay: Antiviral activity against Human rhinovirus 14 infected in human H1-HeLa cells incubated for 3 days measured by crystal violet staining based plaque counting analysis; settings: Rhinovirus B, 72 h
rhinovirus A16 = assay: Antiviral activity against Human rhinovirus 16 infected in human H1-HeLa cells incubated for 3 days measured by crystal violet staining based plaque counting analysis; settings: Rhinovirus A, 72 h
rhinovirus A21 = assay: Antiviral activity against Human rhinovirus A21 infected in human H1-HeLa cells incubated for 3 days measured by crystal violet staining based plaque counting analysis; settings: Rhinovirus A, 72 h
[1] = Selectivity index, ratio of CC50 for cytotoxicity against human H1-HeLa cells infected with 1 MOI human rhinovirus 14 to EC50 for antiviral activity against Human rhinovirus 14 infected in human H1-HeLa cells; format: toxicity, cell-based; settings: H1-HeLa cells infected with human rhinovirus 14, read-out: Ratio CC50/EC50
[2] = Selectivity index, ratio of CC50 for cytotoxicity against human H1-HeLa cells infected with 1 MOI human rhinovirus 16 to EC50 for antiviral activity against Human rhinovirus 16 infected in human H1-HeLa cells; format: toxicity, cell-based; settings: H1-HeLa cells infected with human rhinovirus 16, read-out: Ratio CC50/EC50
[3] = Selectivity index, ratio of CC50 for cytotoxicity against human H1-HeLa cells infected with 1 MOI human rhinovirus 21 to EC50 for antiviral activity against Human rhinovirus 21 infected in human H1-HeLa cells; format: toxicity, cell-based; settings: H1-HeLa cells infected with human rhinovirus 21, read-out: Ratio CC50/EC50
H1-HeLa = assay: cells; settings: Homo sapiens, 1 h

Compound	EC50 (rhinovirus B14)	EC50 (rhinovirus A16)	EC50 (rhinovirus A21)	selectivity ratio [1]	selectivity ratio [2]	selectivity ratio [3]	CC50 (H1-HeLa)
COc1ccc(-c2sc(NC(=O)C(C)(C)C)nc2C)cc1S(=O)(=O)NCCNC(C)=O	4400 nM	3300 nM	9100 nM	> 5	> 6	> 2	> 20 µM
COc1ccc(-c2sc(NC(=O)C(C)(C)C)nc2C)cc1S(=O)(=O)CCc1ccncc1	1300 nM	1000 nM	1700 nM	> 10	> 13	> 7	12.5 µM
CC(=O)Nc1nc(C)c(-c2ccc(Cl)c(S(=O)(=O)NCCO)c2)s1	770 nM	840 nM	1600 nM	21	19	10	15.8 µM
CCOC(=O)/C=C/[C@H](C[C@@H]1CCNC1=O)NC(=O)[C@@H](CC(=O)[C@@H](NC(=O)c1cc(C)on1)C(C)C)Cc1ccc(F)cc1	58 nM	80 nM	95 nM				> 100 µM
COc1ccc(-c2sc(NC(=O)C(C)(C)C)nc2C)cc1S(=O)(=O)NCCN1CCOCC1	1000 nM	560 nM	1800 nM	> 20	> 36	> 11	> 20 µM
COc1ccc(-c2sc(NC(C)=O)nc2C)cc1S(=O)(=O)CCN1CCOCC1	1400 nM	1300 nM	3200 nM	> 14	> 15	> 6	> 20 µM

Now from value to molecule, other results behind:

EC50 (rhinovirus B14)	EC50 (rhinovirus A16)	EC50 (rhinovirus A21)	Compound	selectivity ratio [1]	selectivity ratio [2]	selectivity ratio [3]	CC50 (H1-HeLa)
1300 nM	790 nM	1500 nM	COCCNS(=O)(=O)c1cc(-c2sc(NC(=O)C(C)(C)C)nc2C)ccc1OC	> 15	> 25	> 13	> 20 µM
14500 nM	12000 nM	17700 nM	COc1ccc(-c2sc(NC(C)=O)nc2C)cc1	> 1	> 2	> 1	> 20 µM
3800 nM	2000 nM	4500 nM	COc1ccc(-c2sc(NC(=O)C(C)(C)C)nc2C)cc1S(=O)(=O)NCc1cccc(S(C)(=O)=O)c1	> 5	> 10	> 4	> 20 µM
